{"source": "paper PMC7251641", "about": "(Cell, 2010)", "target": "INO80 (Saccharomyces cerevisiae, UniProt P53115)", "test": "real-time fluorescent phosphate-release ATPase assay", "format": "biochemical", "details": "0.1 nM INO80; with or without 15 nM nucleosomes or DNA; 23 °C"}
{"smiles": "Nc1ncnc2c1ncn2[C@@H]1O[C@H](COP(=O)(O)OP(=O)(O)OP(=O)(O)O)[C@@H](O)[C@H]1O", "note": "[ATP]", "values": [{"measurement": "KM", "value": "KM for the ATPase of SWR1, INO80, and SWI/SNF in the presence or absence"}]}
